Legend:
tumor cell lines = conditions: variety of tumor cell lines; cited from earlier work
IGF-1R [1] = molecular target: T1, IGF-1R (Homo sapiens, UniProt P08069); conditions: cited from earlier work
[2] = test system: IGF-1R-driven xenograft model; conditions: orally once daily; cited from earlier work
adrenocortical carcinoma = conditions: Phase 3 study; cited from earlier work
[3] = test system: metastatic pancreatic cancer; conditions: clinical trials, incl. metastatic pancreatic cancer; cited from earlier work
IGF-1R [4] = molecular target: T1, IGF-1R; test: IGF-1R biochemical assay (ADP-Glo); conditions: read-out: IGF1R IC50
Method: The inhibitory activity against IGF-1R was measured using ADP-Glo assay. The percent (%) inhibition at each concentration of compound is calculated based on and relative to the luminescence signal in the Max and Min control wells contained within each assay plate. The Max control wells contain enzyme and substrate as 0% inhibition, and the Min control wells only contain substrate without enzyme as 100% inhibition. The concentrations and % inhibition values for tested compounds are plotted and the concentration of compound required for 50% inhibition (IC50) is determined with a four-parameter logistic dose response equation.
Table 3 provides IC50 data of representative compounds against IGF-1R using ADP-Glo assay. The IC50 data are designated within the following ranges: A: ≤0.10 μM, B: >0.10 μM to ≤1 μM, C: >1 μM to ≤20 μM

Ba/F3-TEL-IGF-1R cells = test: CellTiter-Glo luminescent cell viability assay; assay type: cell-based; conditions: cellular IC50, Ba/F3-TEL-IGF-1R cells
Method: The CellTiter-Glo luminescent cell viability assay was used to determine the inhibitory activity of the compounds against IGF-1R in Ba/F3-TEL-IGF-1R cells. […] The IC50 data are designated within the following ranges: A: ≤1 μM, B: >1 μM to ≤10 μM, C: >10 μM to ≤20 μM

malignancies = conditions: Phase I trials; cited from earlier work
thyroid eye disease = conditions: cited from earlier work

T1 sequence (P08069 31-1367): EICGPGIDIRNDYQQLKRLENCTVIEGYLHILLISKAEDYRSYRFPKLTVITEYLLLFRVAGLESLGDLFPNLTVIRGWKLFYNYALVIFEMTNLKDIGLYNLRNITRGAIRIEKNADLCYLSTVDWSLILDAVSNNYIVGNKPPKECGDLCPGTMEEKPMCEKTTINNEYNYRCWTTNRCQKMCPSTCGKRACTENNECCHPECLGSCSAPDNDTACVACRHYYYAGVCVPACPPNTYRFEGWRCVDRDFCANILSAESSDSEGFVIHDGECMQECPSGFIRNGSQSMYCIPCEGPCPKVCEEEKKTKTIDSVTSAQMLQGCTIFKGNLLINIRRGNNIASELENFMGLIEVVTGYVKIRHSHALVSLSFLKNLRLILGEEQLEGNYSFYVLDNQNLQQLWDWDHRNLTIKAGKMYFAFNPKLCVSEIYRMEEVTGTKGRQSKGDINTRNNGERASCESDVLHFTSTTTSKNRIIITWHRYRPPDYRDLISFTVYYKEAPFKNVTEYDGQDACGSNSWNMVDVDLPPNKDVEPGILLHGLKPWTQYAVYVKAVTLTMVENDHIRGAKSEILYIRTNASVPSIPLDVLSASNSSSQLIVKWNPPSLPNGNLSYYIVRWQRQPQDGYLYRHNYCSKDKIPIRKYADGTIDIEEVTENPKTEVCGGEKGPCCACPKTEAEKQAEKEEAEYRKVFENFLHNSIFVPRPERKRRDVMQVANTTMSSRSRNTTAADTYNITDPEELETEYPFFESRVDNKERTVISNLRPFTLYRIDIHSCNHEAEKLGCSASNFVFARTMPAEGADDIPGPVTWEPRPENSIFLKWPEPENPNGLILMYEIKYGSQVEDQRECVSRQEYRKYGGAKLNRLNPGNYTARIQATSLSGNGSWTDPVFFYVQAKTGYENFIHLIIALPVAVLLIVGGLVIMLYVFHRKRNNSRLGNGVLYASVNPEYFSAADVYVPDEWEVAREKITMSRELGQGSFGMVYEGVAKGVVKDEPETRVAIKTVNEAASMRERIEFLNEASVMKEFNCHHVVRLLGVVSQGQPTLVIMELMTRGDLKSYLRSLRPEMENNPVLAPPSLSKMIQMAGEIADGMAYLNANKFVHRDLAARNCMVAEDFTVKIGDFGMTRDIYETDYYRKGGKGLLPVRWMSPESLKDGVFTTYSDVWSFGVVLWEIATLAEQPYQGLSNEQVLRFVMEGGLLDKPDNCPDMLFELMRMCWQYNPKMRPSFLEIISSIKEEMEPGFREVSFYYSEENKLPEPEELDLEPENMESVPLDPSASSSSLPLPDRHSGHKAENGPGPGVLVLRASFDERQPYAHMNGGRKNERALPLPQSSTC

Row | Molecule | IC50 (IGF-1R [4]) | IC50 (Ba/F3-TEL-IGF-1R cells) | other results
1 | C[C@]1(O)C[C@@H](c2nc(-c3ccc4ccc(-c5ccccc5)nc4c3)c3c(N)nccn32)C1 [OSI-906, Linsitinib] | – | – | in vitro antiproliferative effects (tumor cell lines): in vitro antiproliferative effects; inhibition of autophosphorylation of human IGF-1R (IGF-1R [1]): potently and selectively inhibits autophosphorylation; in vivo anti-tumor efficacy [2]: robust in vivo anti-tumor efficacy; overall survival (adrenocortical carcinoma): did not increase overall survival
2 | ganitumab | – | – | survival rates [3]: largely ineffective at improving survival rates
3 | C[C@]1(O)C[C@@H](n2nc(-c3ccc4ccc(-c5ccccc5)nc4c3)c(C(N)=O)c2N)C1 [Example C005, 5-amino-1-((1s,3s)-3-hydroxy-3-methylcyclobutyl)-3-(2-phenylquinolin-7-yl)-1H-pyrazole-4-carboxamide] | ≤ 0.1 µM | ≤ 1 µM | –
4 | COc1cc(-c2ccccc2)nc2cc(-c3nn([C@H]4C[C@@](C)(O)C4)c(N)c3C(N)=O)ccc12 [Example C032, 5-amino-1-((1s,3s)-3-hydroxy-3-methylcyclobutyl)-3-(4-methoxy-2-phenylquinolin-7-yl)-1H-pyrazole-4-carboxamide] | ≤ 0.1 µM | ≤ 1 µM | –
5 | COc1cc(-c2ccccc2F)nc2c(F)c(-c3nn([C@H]4C[C@@](C)(O)C4)c(N)c3C(N)=O)ccc12 [Example C035, 5-amino-3-(8-fluoro-2-(2-fluorophenyl)-4-methoxyquinolin-7-yl)-1-((1s,3s)-3-hydroxy-3-methylcyclobutyl)-1H-pyrazole-4-carboxamide] | ≤ 0.1 µM | ≤ 1 µM | –
6 | COc1cc(-c2ccccc2)nc2c(F)c(-c3nn([C@H]4C[C@](C)(O)C4)c(N)c3C(N)=O)ccc12 [Example C045, 5-amino-3-(8-fluoro-4-methoxy-2-phenylquinolin-7-yl)-1-((lr,3r)-3-hydroxy-3-methylcyclobutyl)-1H-pyrazole-4-carboxamide] | ≤ 0.1 µM | ≤ 1 µM | –
7 | CCOc1cc(-c2ccccc2)nc2cc(-c3nn([C@H]4C[C@@](C)(O)C4)c(N)c3C(N)=O)ccc12 [Example C036, 5-amino-3-(4-ethoxy-2-phenylquinolin-7-yl)-1-((1s,3s)-3-hydroxy-3-methylcyclobutyl)-1H-pyrazole-4-carboxamide] | ≤ 0.1 µM | ≤ 1 µM | –
8 | teprotumumab | – | – | effectiveness in treating malignancies (malignancies): little effectiveness; inflammation in thyroid eye disease (thyroid eye disease): decrease inflammation
9 | COc1cc(-c2ccccc2F)nc2c(F)c(-c3nn([C@H]4C[C@](C)(O)C4)c(N)c3C(N)=O)ccc12 [Example C050, 5-amino-3-(8-fluoro-2-(2-fluorophenyl)-4-methoxyquinolin-7-yl)-1-((1r,3r)-3-hydroxy-3-methylcyclobutyl)-1H-pyrazole-4-carboxamide] | ≤ 0.1 µM | ≤ 1 µM | –

Source: patent US20250145599A1, “CERTAIN CHEMICAL ENTITIES, COMPOSITIONS, AND METHODS” (Retune Pharma Inc., priority 2022, published 2025)
